“And” between values parts separate entries of the source, which are not always exact repeats. Equal entries are not always repeated.
Experiments:
Rv1258c efflux pump = conditions: for Efflux Ratio: H37Rv MIC / Rv1258c KO MIC
[1] = biological target: Purified 70S M. smegmatis bacterial ribosomes (Mycolicibacterium smegmatis, UniProt A0QSG6); assay: Ribosomal translation inhibition; assay type: biochemical; conditions: inhibits luciferase activity by 50%
M. tuberculosis H37Rv = assay: microbe, parasite or virus in culture; assay type: cell-based, Mycobacterium tuberculosis; conditions: for H37Rv MIC: Tables 1-4 and text; for MIC (H37Rv): Table 5
[2] = tested on: M. tuberculosis H37Rv Rv1258c knockout (KO); assay: microbe, parasite or virus in culture; assay type: cell-based; conditions: Tables 1-4 and text; 7 days, 7H9 broth
[3] = Maximum tolerated dose / tolerability; assay type: in vivo, mouse; conditions: mice, subcutaneous
Protein binding, human = assay type: in vitro ADME
HepG2 cells = assay: Mammalian cytotoxicity; assay type: cell-based
[4] = Microsomal stability, human; assay type: in vitro ADME; conditions: human liver microsomes
M. bovis BCG = assay type: cell-based; conditions: average of 2–3 replicates, standard deviation in parenthesis
M. tuberculosis Erdman = assay: Mouse model of acute tuberculosis infection; assay type: in vivo; conditions: 200 mg/kg BID, 9 days, subcutaneous, vs control
[5] = Microsomal stability, mouse; assay type: in vitro ADME; conditions: mouse liver microsomes
Protein binding, mouse = assay type: in vitro ADME

Sequence of Purified 70S M. smegmatis bacterial ribosomes (A0QSG6 whole entry): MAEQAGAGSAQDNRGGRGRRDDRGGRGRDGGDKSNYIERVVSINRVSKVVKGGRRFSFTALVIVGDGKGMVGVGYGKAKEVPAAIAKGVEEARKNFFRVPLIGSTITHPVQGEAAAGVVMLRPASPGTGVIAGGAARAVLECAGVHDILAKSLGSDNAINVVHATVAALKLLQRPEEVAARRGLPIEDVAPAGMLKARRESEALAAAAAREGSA

Row | Compound | Efflux Ratio (Rv1258c efflux pump) | Ribosome IC50 [1] | H37Rv MIC (M. tuberculosis H37Rv) [µg/mL] | Rv1258c KO MIC [2] [µg/mL] | Maximum tolerated dose (MTD) [3] | Fold change of MIC between H37Rv and Rv1258c KO (efflux) (Rv1258c efflux pump) [fold] | Protein binding human (Protein binding, human) [%] | Cytotoxicity (HepG2) (HepG2 cells) [µg/mL] | Microsomal stability t1/2 human [4] [h] | Post Antibiotic Effect (M. bovis BCG) | Reduction of bacterial load in lungs (M. tuberculosis Erdman; second new trial (Figure 3C)) [log] | MIC (H37Rv) (M. tuberculosis H37Rv) [µg/mL] | Microsomal stability t1/2 mouse [5] [h] | Protein binding mouse (Protein binding, mouse) [%] | Reduction of bacterial load in lungs (M. tuberculosis Erdman; first new trial (Figure 3B))
1 | Br.Br.Br.CNC1C(O)C(NC)C2OC3(O)C(NC(=O)Cc4nc5ccccc5s4)CC(C)OC3OC2C1O [Compound 25, 3′-Dihydro-3′-deoxy-3′(R)-(benzo[d]thiazol-2-yl)acetylamino spectinomycin trihydrobroride] | 2 | 1.09 µg/mL | 1.6 | 0.8 | mild toxicity noted when dosage exceeded 100 mg/kg |  |  |  |  |  |  |  |  |  | 
2 | Br.Br.Br.CNC1C(O)C(NC)C2OC3(O)C(NC(=O)Cc4ncccc4C)CC(C)OC3OC2C1O [Compound 29, 3′-Dihydro-3′-deoxy-3′(R)-(3-methylpyridin-2-yl)acetylamino spectinomycin trihydrobromide] | 4 | 1.00 µg/mL | 25 | 6.3 |  |  |  |  |  |  |  |  |  |  | 
3 | Br.Br.Br.CNC1C(O)C(NC)C2OC3(O)C(NC(=O)Cc4cc(C)ccn4)CC(C)OC3OC2C1O [Compound 30, 3′-Dihydro-3′-deoxy-3′(R)-(4-methylpyridin-2-yl)acetylamino spectinomycin trihydrobromide] | 0.5 | 0.47 µg/mL | 3.1 | 6.3 |  |  |  |  |  |  |  |  |  |  | 
4 | Br.Br.Br.CNC1C(O)C(NC)C2OC3(O)C(OC(C)C[C@H]3NC(=O)Cc3cccc(C)n3)OC2C1O (stereo partly drawn) [Compound 32, 3′-Dihydro-3′-deoxy-3′(R)-(6-methylpyridin-2-yl)acetylamino spectinomycin trihydrobromide] | 4 | 0.50 µg/mL | 25 | 6.3 |  |  |  |  |  |  |  |  |  |  | 
5 | Br.Br.Br.CNC1C(O)C(NC)C2OC3(O)C(NC(=O)Cc4cc(C(C)C)ccn4)CC(C)OC3OC2C1O [Compound 33, 3′-Dihydro-3′-deoxy-3′(R)-(4-isopropylpyridin-2-yl)acetylamino spectinomycin trihydrobromide] | 4 | 0.36 µg/mL | 6.3 | 1.6 |  | 4 |  |  |  |  |  |  |  |  | 
6 | Br.Br.Br.CNC1C(O)C(NC)C2OC3(O)C(NC(=O)Cc4cc(OC)ccn4)CC(C)OC3OC2C1O [Compound 34, 3′-Dihydro-3′-deoxy-3′(R)-(4-methoxypyridin-2-yl)acetylamino spectinomycin trihydrobromide] | 4 | 0.39 µg/mL | 12.5 | 3.1 |  |  |  |  |  |  |  |  |  |  | 
7 | CNC1C(O)C(NC)C2OC3(O)C(NC(=O)Cc4cc(O)ccn4)CC(C)OC3OC2C1O.Cl.Cl.Cl [Compound 35, 3′-Dihydro-3′-deoxy-3′(R)-(4-hydroxypyridin-2-yl)acetylamino spectinomycin trihydrochloride] | 2 | 0.44 µg/mL | 25 | 12.5 |  |  |  |  |  |  |  |  |  |  | 
8 | Br.Br.Br.CN[C@@H]1[C@H](O)[C@H](NC)[C@H]2O[C@]3(O)[C@H](O[C@@H]2[C@H]1O)O[C@H](C)C[C@H]3NC(=O)Cc1ccc(OC)cn1 [Compound 38, 3′-Dihydro-3′-deoxy-3′(R)-(5-methoxypyridin-2-yl)acetylamino spectinomycin trihydrobromide] | 0.5 | 0.39 µg/mL | 3.1 | 6.3 |  |  | 51.4 | >400 | 3.4 | 56 (12) h | 1.6 | 3.1 | 4.8 | 57.3 | 
9 | CN[C@@H]1[C@H](O)[C@H](NC)[C@H]2O[C@]3(O)[C@H](O[C@@H]2[C@H]1O)O[C@H](C)C[C@H]3NC(=O)Cc1ccc(O)cn1.Cl.Cl.Cl [Compound 39, 3′-Dihydro-3′-deoxy-3′(R)-(5-hydroxypyridin-2-yl)acetylamino spectinomycin trihydrochloride] | 0.5 | 0.84 µg/mL | 1.6 | 3.1 | > 400 mg/kg |  | 35.1 | >400 | 7.4 | 20 (18) h | 1.5 | 1.6 | 13.4 | 30.7 | 
10 | Br.Br.Br.CNC1C(O)C(NC)C2OC3(O)C(NC(=O)Cc4ccc(Br)cn4)CC(C)OC3OC2C1O [Compound 43, 3′-Dihydro-3′-deoxy-3′(R)-(5-bromopyridin-2-yl)acetylamino spectinomycin trihydrobromide] | 2 | 0.42 µg/mL | 3.1 | 1.6 |  |  |  |  |  |  |  |  |  |  | 
11 | Br.Br.Br.CNC1C(O)C(NC)C2OC3(O)C(OC(C)C[C@H]3NC(=O)Cc3nccc(Cl)c3C(C)C)OC2C1O (stereo partly drawn) [Compound 45, 3′-Dihydro-3′-deoxy-3′(R)-(4-chloro-3-isopropylpyridin-2-yl)acetylamino spectinomycin trihydrobromide] | 32 | 2.3 µg/mL and 2.31 µg/mL | 50 | 1.6 |  | 32 |  |  |  |  |  |  |  |  | 
12 | Br.Br.Br.CN[C@@H]1[C@H](O)[C@H](NC)[C@H]2O[C@]3(O)[C@H](O[C@@H]2[C@H]1O)O[C@H](C)C[C@H]3NC(=O)Cc1nccc(Cl)c1C [Compound 46, 3′-Dihydro-3′-deoxy-3′(R)-(4-chloro-3-methylpyridin-2-yl)acetylamino spectinomycin trihydrobromide] | 2 | 0.59 µg/mL | 3.1 | 1.6 |  |  | 46.6 | >400 | >50 |  |  | 3.1 | >50 | 36.4 | least reduction in bacterial loads
13 | Br.Br.Br.CN[C@@H]1[C@H](O)[C@H](NC)[C@H]2O[C@]3(O)[C@H](O[C@@H]2[C@H]1O)O[C@H](C)C[C@H]3NC(=O)Cc1cc(Cl)c(F)cn1 [Compound 49, 3′-Dihydro-3′-deoxy-3′(R)-(4-chloro-5-fluoropyridin-2-yl)acetylamino spectinomycin trihydrobromide] |  | 0.22 µg/mL | 0.8 | 0.8 |  |  | 56.3 | >400 | >50 | 116 (19) h |  | 0.8 | >50 | 39.3 | 
14 | CNC1C(O)C(NC)C2OC3(O)C(OC(C)C[C@H]3NC(=O)Cc3cc(OC)c(F)cn3)OC2C1O.Cl.Cl.Cl (stereo partly drawn) [Compound 50, 3′-Dihydro-3′-deoxy-3′(R)-(5-fluoro-4-methoxypyridin-2-yl)acetylamino spectinomycin trihydrochloride] | 2 | 0.92 µg/mL | 6.3 | 3.1 |  |  |  |  |  |  |  |  |  |  | 

— PMC5493200 (ACS infectious diseases, 2016)
